According to patent publication US20220346650A1, “SYSTEMS AND METHODS FOR VASCULAR AND STRUCTURAL IMAGING” (priority 2019, published 2022):

Assays:
[1] = system: vascular lesion in the right middle frontal gyrus; details: general comparison statement in Example 14, no own test described; cited from earlier work
[2] = system: vascular lesion in the right middle frontal gyrus; experiment: Intraoperative NIR fluorescence imaging of tozuleristide during resection of a vascular lesion (arteriovenous or cavernous malformation); assay type: in vivo, human; details: for Fluorescence of surrounding tissue, normal brain tissue and normal vasculature / Fluorescence of the abnormal vascular tissue / vascular lesion: pediatric subject, 22 mg (15 mg/m^2) IV approximately 5-6 hours before surgery, NIR fluorescence; for Fluorescence of the abnormal vascular tissue / vascular lesion: in situ
Description: (§1) This example describes use of the imaging system and/or methods disclosed herein for coaxial illumination and visualization of tozuleristide fluorescence during surgical resection of an arteriovenous malformation or cavernous malformation in a pediatric patient. The imaging system of the present invention was used to image brain tissue to detect abnormal vasculature using fluorescence imaging. Surgery was performed to remove the abnormality from the subject.
A pediatric subject with a history of anosmia was found on MRI to have a 3.5 cm T1-hypointense, T2/FLAIR-hyperintense mass in the right middle frontal gyrus with a central enhancing nodule, initially diagnosed pre-operatively to be a low-grade glioma. […] The patient received 22 mg (15 mg/M^2) of tozuleristide via IV injection approximately 5-6 hours before surgery and image collection. The imaging system head was attached to the Zeiss Pentero surgical microscope along with two eyepieces prior the start of surgery.
After the lesion was exposed, the imaging system was initialized and used continuously. The imaging system enabled the surgeon to view fluorescence and visible imaging together and simultaneously with the operating microscope. A microsurgical resection was performed through a right frontal craniotomy. […] The abnormal tissue was completely resected. The patient recovered without deficit. Pathology confirmed the absence of tumor.
Video was captured for the duration of the resection, and still images were captured of the exposed lesion. […] FIGS. 18 and 19 show images taken from the vascular lesion with the near-infrared (NIR) fluorescence images of the vascular lesion using the imaging system. […] In the overlay image, the normal brain tissue and normal blood vessels appeared pink or light tan to red, as it does under normal visible light or white light. The surgeon noted that only the abnormal vascular tissue appeared fluorescent.

[3] = system: cerebral cavernous malformation in the left cerebellar hemisphere; experiment: Intraoperative NIR fluorescence imaging of tozuleristide during cavernous malformation resection; assay type: in vivo, human; details: pediatric patient; 15 mg/m2 IV on the morning of surgery
Description: as §1, with “compounds and” for “imaging system and/or”, “a” for “an arteriovenous malformation or”, “An” for “The”, “system” for “system of the present invention”
The patient received 15 mg/m2 of a fluorescent conjugate comprising SEQ ID NO: 1 conjugated to an ICG (tozuleristide, also referred to herein as Compound 76) via IV injection on the morning of surgery and image collection. The imaging system head was attached to the Zeiss Pentero surgical microscope along with two eyepieces prior the start of surgery.
After the lesion was exposed, the imaging system was initialized and used continuously. The imaging system enabled the surgeon to view fluorescence and visible imaging together and simultaneously with the operating microscope. A microsurgical resection was performed through a left retroaricular craniotomy with frameless stereotactic navigation and intraoperative ultrasonography. A round mulberry appearing vascular lesion that contained areas of thrombosed vessels and firm calcifications was encountered. […] The lesion was removed. […]

[4] = system: Grade 4 Atypical Teratoid Rhabdoid Tumor (ATRT) in the posterior fossa/brain stem; experiment: Intraoperative NIR fluorescence imaging of tozuleristide during pediatric brain tumor resection; assay type: in vivo, human; details: Subject T613, 15 mg/m2 IV bolus about 13.5 hours prior to surgery
Description: as §1, with “method” for “methods”, “of” for “of an arteriovenous malformation or cavernous malformation in”, “brain tumor.” for “patient.”, “a cancer” for “abnormal vasculature”, “cancer” for “the abnormality”
Subject T613 was diagnosed with a Grade 4 Atypical Teratoid Rhabdoid Tumor (ATRT) in the posterior fossa/brain stem. Tozuleristide which is a peptide-fluorophore detectable agent (15 mg/m2 dose), was given by intravenous (IV) bolus injection about 13.5 hours prior to the start of surgery. The imaging head was attached to the Zeiss Pentero surgical microscope along with two eyepieces prior the start of surgery.
After the tumor was exposed, the imaging system was initialized and used continuously. The imaging system enabled the surgeon to view fluorescence and visible imaging together and simultaneously with the operating microscope. […] Moreover, there was no need to reposition the operating microscope to view the fluorescence and visible images thus providing imaging of the surgical area together with the fluorescence imaging system during the operation, which decreased disruption to the surgical workflow.
Video was captured for the duration of the tumor resection, and still images were captured of the exposed tumor. […] FIGS. 15A-15F show images taken from the tumor resection with the near-infrared (NIR) fluorescence images of the tumor using the imaging system (FIGS. 15B and 15E) and the overlay image with the NIR fluorescence overlaid with the white light or visible light spectrum illumination (FIGS. 15C and 15F). […] In the overlay image, the normal brain tissue appeared red, as it does under normal visible light or white light as shown the visible light images of the tumor (FIGS. 15A and 15D). The surgeon noted that only tumor tissue appeared fluorescent.

For `CC1(C)C(/C=C/C=C/C=C/C=C2\N(CCCCS(=O)(=O)O)c3ccc4ccccc4c3C2(C)C)=[N+](CCCCS(=O)(=O)[O-])c2ccc3ccccc3c21` [ICG, indocyanine green], the “Behaviour of ICG alone after injection (comparison statement)” value [1] is listed as “transiently lights up blood vessels immediately after injection”.
With tozuleristide the “Time after injection during which diseased tissue can be highlighted” value ([2]; general statement in Example 14, fluorescence dependent on pathological tissue binding and uptake) was “up to 30 hours”, the “Fluorescence of surrounding tissue, normal brain tissue and normal vasculature” value (“Fluorescence of surrounding tissue” below) [2] was “non-fluorescent” and the “Fluorescence of the abnormal vascular tissue / vascular lesion” value [2] was “indicative of the presence of tozuleristide in the vascular lesion”. For the same compound, the “Fluorescence of the abnormal vascular tissue / vascular lesion” value ([2]; listed as Tozuleristide) was “observed in situ in the exposed vascular lesion”, the “Fluorescence of the abnormal vascular tissue / vascular lesion” value ([2]; listed as toluzeristide) was “fluoresced avidly” and the “Fluorescence of surrounding tissue” value ([2]; listed as Tozuleristide) was “no discernable background fluorescence”. The “Fluorescence of surrounding tissue” value ([2]; listed as toluzeristide) was “no fluorescence”, the “Fluorescence of the cavernous malformation lesion” value [3] was “fluoresced avidly” and the “Fluorescence of the surrounding cerebellum” value [3] was “did not fluoresce”. The “Surgeon-noted distinction between tumor and normal tissue with NIR fluorescence” value [4] was “very good distinction between tumor and normal tissue fluorescence”, the “Background fluorescence in non-tumor or normal brain tissue” value ([4]; NIR fluorescence image) was “no discernable background fluorescence” and the “Tozuleristide fluorescence in the exposed tumor” value ([4]; NIR fluorescence, in situ) was “observed in situ in the exposed tumor”.
